According to PMC12535377, “Synaptic and intrinsic plasticity mediated by CCK-type signaling coordinates behavioral changes during motivational state shifts” (Cell reports, 2025):
Non-standard residues stand in square brackets, D forms with d. Residues, ends and D or L forms follow the SMILES beside them. sY = N[C@@H](Cc1ccc(OS(=O)(=O)O)cc1)C(=O)O; pGlu = O=C1CC[C@@H](C(=O)O)N1

Key:
[1] = test system: CBI-2-elicited feeding motor programs; assay: CBI-2-elicited feeding motor programs in isolated cerebral and buccal ganglia; set-up: species or system Aplysia californica; details: for Feeding program effect, summary grade: Table S1 summary in words; for B8 activity (frequency) during retraction: 10^-6 M and 10^-5 M
Method: To explore the neural basis of the behavioral effects of apCCKs, we examined their modulation of feeding-motor programs in isolated ganglia. All eight forms of apCCKs were tested on programs induced by CBI-2, a command-like interneuron that is active during food-elicited feeding behavior[56] and provides potent excitatory inputs to buccal central pattern generator (CPG) interneurons,[54],[77] orchestrating ingestive motor programs (Figure S23A). Stable single-cycle motor programs were evoked by stimulating CBI-2 at 8–10 Hz throughout the protraction phase with a 90-s intertrial interval. Two concentrations, 10^−6 M and 10^−5 M, of apCCKs were tested.
(§1) Intracellular and extracellular recordings were made as described previously.[57]–[59],[61],[151] To prevent movements of ganglia caused by myoactive apCCK (especially [sY8]-apCCK1 and [sY6, sY8]-apCCK1) during bath application, we treated the ganglia with 0.8% protease IX for 1–2 min prior to desheathing. Subsequently, ganglia were desheathed, transferred to a recording chamber containing ~1.5 mL of ASW (460 mM NaCl, 10 mM KCl, 11mM CaCl2, 55 mM MgCl2, and 10 mM HEPES, pH 7.6), continuously perfused at 0.3 mL/min, and maintained at 14°C–17°C. The experiments examining the effects of apCCKs on excitability of B20/B34/B61/62/B65/B64 neurons were performed in a high divalent saline (368 mM NaCl, 8 mM KCl, 13.8 mM CaCl2, 115 mM MgCl2, and 10 mM HEPES, pH 7.6), which increases the spiking threshold of neurons and therefore curtails polysynaptic influences. Intracellular recordings were obtained using 5–10 MΩ sharp microelectrodes filled with an electrolyte (0.6 M K2SO4 plus 60 mM KCl). Extracellular recordings were acquired from polyethylene suction electrodes. Grass S88 and WPI Pulsemaster A300 stimulators were used to provide timing signals for intracellular and extracellular stimulation. To determine the effects of various forms of apCCKs on Aplysia feeding programs, we performed experiments with the cerebral and buccal ganglia. Freshly made apCCK solution in ASW was perfused into the recording chamber. Feeding-motor programs were elicited by stimulation of command-like neuron CBI-2 at 8–10 Hz or stimulation of the EN at 2 Hz, 3 ms, 15 V, and were monitored by bursting activity of the I2 nerve of the buccal ganglion.[58],[59],[61] Typically, we recorded from motor neuron B8, and one interneuron, e.g., B40 or B20. To determine effects of apCCKs on synaptic strength, we stimulated presynaptic neuron, CBI-2, B34 (plus 1 nA current) or B65 at 10 Hz for 2 s for several trials and waited 1 min between each trial. The stimulation duration for each trial was set at 2 s because this allows the expression of synaptic facilitation without evoking too many spikes. Typically, the amplitude of the last EPSP at each concentration of peptides was quantified unless otherwise stated.

[2] = test system: Aplysia californica; assay: Feeding behavior (food intake) in intact animals after peptide injection; type: in vivo; details: for Behavioral effect (food intake), summary grade: Table S1 summary in words; for Food intake (seaweed consumed in a single meal): food-deprived animals
Description: To explore the role of apCCKs as satiety signals in mollusks, we examined their effects on food intake. […] The remaining four forms had no impact (Figure S9). Moreover, [sY6, sY8]-apCCK1 slowed food consumption (Figure 2E), which could stem, in part, from a shift from ingestive to egestive patterns as the meal progressed. [sY6, sY8]-apCCK1 also extended the duration to consume one strip of seaweed compared to controls (Figure 2F), further mimicking natural satiety.
Behavioral experiments were conducted in two batches, each using animals from separate shipments. In the first batch (Figure 2), animals were larger, with an average body weight of 93.3 ± 4.8 g, and were food-deprived for 7 days prior to testing. In the second batch (Figure S9), animals were smaller (average weight: 70.6 ± 4.0 g) and were food-deprived for 5 days to account for their reduced size. In each experiment, two weight-matched animals were housed in separate round net cages (17 cm diameter and 17 cm height) that were placed in a 500 L tank filled with circulating aerated ASW (14°C–16°C). To ensure that the animals were responsive to food, they were first pretested with a small piece of seaweed. After this pretest, in each pair, one animal was injected (into the hemocoel using a syringe needle) with apCCKs freshly dissolved in 1.5 mL ASW, whereas the other was injected with 1.5 mL of ASW. Three minutes later, the feeding session commenced. Animals were hand-fed seaweed (Shirako, Tokyo, Japan) cut in 1 × 10 cm strips, weighing ~0.1 g, increasing 10-fold when hydrated. This hand-feeding approach has been used in prior study of Aplysia feeding behavior.[146],[147] The consumed seaweed amount was converted to hydrated weight and normalized to the animal’s body weight. Each strip of seaweed was delivered to the mouth area with forceps. Feeding was terminated after 1 h or when animals stopped ingesting seaweed for 3 min.

[3] = test system: B20, B40, B64, B34, B61/62, B65 neurons and CBI-2 synapses; assay: Electrophysiology: excitability and synaptic strength of identified feeding-circuit neurons; set-up: species or system Aplysia californica
Description: To characterize apCCK mechanisms of action, we investigated their effects on synaptic and intrinsic plasticity of key circuit elements. […] However, [sY8]-apCCK1 decreased synaptic strength between CBI-2 and B40 (Figures S26C and S26D).
as §1

[4] = test system: EN-elicited feeding motor programs; assay: EN-elicited egestive motor programs in isolated ganglia; set-up: species or system Aplysia californica; details: EN stimulation at 2 Hz
Description: Although protraction (B61/62) activity is inhibited by apCCKs during CBI-2-elicited programs, this might not be the case for the egestive motor programs elicited by EN stimulation, which could contribute positively to satiety. We therefore examined [sY8]-apCCK1 effects on B61/62 activity in EN-elicited egestive motor programs. […] This difference may be explained in part by effects on the interneuron B65, which is strongly active during EN programs but not during CBI-2 programs,[56],[81]–[83] whereas the opposite is true for B34.[54],[61] B65 elicits fast excitatory postsynaptic potentials (EPSPs) in B61/62.[81] [sY8]-apCCK1 increased B65 excitability (Figures 6M and 6N) and EPSPs from B65 to B61/62 (Figures 6O and 6P), which could account for the increase of B61/62 activity during EN programs.
Intracellular and extracellular recordings were made as described previously.[57]–[59],[61],[151] […] Feeding-motor programs were elicited by stimulation of command-like neuron CBI-2 at 8–10 Hz or stimulation of the EN at 2 Hz, 3 ms, 15 V, and were monitored by bursting activity of the I2 nerve of the buccal ganglion.[58],[59],[61] Typically, we recorded from motor neuron B8, and one interneuron, e.g., B40 or B20. […] Typically, the amplitude of the last EPSP at each concentration of peptides was quantified unless otherwise stated.

[5] = injection into hemocoel of apCCK solutions (10^-7 M or 10^-6 M) vs ASW
[6] = presynaptic stimulation 10 Hz for 2 s, last EPSP

SMILES: CC(C)C[C@H](NC(=O)CNC(=O)[C@H](Cc1ccc(O)cc1)NC(=O)[C@H](CC(=O)O)NC(=O)[C@H](Cc1ccc(O)cc1)NC(=O)[C@H](CO)NC(=O)[C@H](Cc1c[nH]c2ccccc12)NC(=O)[C@H](C)NC(=O)CNC(=O)[C@@H]1CCC(=O)N1)C(=O)NCC(=O)NCC(=O)NCC(=O)N[C@@H](CCCNC(=N)N)C(=O)N[C@@H](Cc1ccccc1)C(N)=O [apCCK1] ([pGlu]GAWSYDYGLGGGRF-NH2)
- Feeding program effect, summary grade [1]: No effect
- Behavioral effect (food intake), summary grade [2]: No effect
- Food intake (seaweed consumed in a single meal) [2, 5]: did not influence feeding

SMILES: CC(C)C[C@H](NC(=O)CNC(=O)[C@H](Cc1ccc(OS(=O)(=O)O)cc1)NC(=O)[C@H](CC(=O)O)NC(=O)[C@H](Cc1ccc(O)cc1)NC(=O)[C@H](CO)NC(=O)[C@H](Cc1c[nH]c2ccccc12)NC(=O)[C@H](C)NC(=O)CNC(=O)[C@@H]1CCC(=O)N1)C(=O)NCC(=O)NCC(=O)NCC(=O)N[C@@H](CCCNC(=N)N)C(=O)N[C@@H](Cc1ccccc1)C(N)=O [[sY8]-apCCK1] ([pGlu]GAWSYD[sY]GLGGGRF-NH2)
- B20 firing frequency in CBI-2 programs ([1]; 10^-6 M): increased
- Type of CBI-2-elicited motor program ([1]; 10^-6 M): shifted ingestive programs to egestive
- B34 frequency in CBI-2 programs ([1]; 10^-6 M and 10^-5 M tested): decreased
- B40 firing frequency in CBI-2 programs ([1]; 10^-6 M and 10^-5 M tested): decreased
- B61/62 frequency in CBI-2 programs ([1]; 10^-6 M and 10^-5 M tested): decreased
- Protraction duration of CBI-2 programs ([1]; 10^-6 M and 10^-5 M tested): shortened
- Retraction duration of CBI-2 programs ([1]; 10^-6 M and 10^-5 M tested): shortened
- B8 activity during protraction ([1]; CBI-2 programs, 10^-5 M): decreased
- B8 activity during protraction ([1]; CBI-2 programs, 10^-6 M): significantly increased
- B8 activity (frequency) during retraction ([1]; CBI-2 programs): significantly decreased
- Firing frequency of the I2 nerve ([1]; CBI-2 programs, 10^-6 M and 10^-5 M tested): significantly decreased
- Feeding program effect, summary grade [1]: Strongest
- B40 excitability [3]: enhanced
- Synaptic strength between CBI-2 and B40 [3]: decreased
- B20 excitability ([3]; 10^-6 M, high divalent saline): significantly enhanced
- EPSPs from B65 to B61/62 ([3]; first EPSP of each stimulation trial): increased
- B34 excitability ([3]; high divalent saline): enhanced
- B61/62 excitability ([3]; high divalent saline): enhanced
- B64 excitability ([3]; high divalent saline): enhanced
- B65 excitability ([3]; high divalent saline): increased
- B20 excitability ([3]; higher concentration (10^-5 M), high divalent saline): no significant effect
- Synaptic strength between B34 and B61/62 [3, 6]: decreased
- Synaptic strength between CBI-2 and B34 [3, 6]: decreased
- Synaptic strength between CBI-2 and B61/62 [3, 6]: decreased
- B61/62 firing frequency in EN-elicited programs [4]: increased
- Behavioral effect (food intake), summary grade [2]: Strongest
- Food intake (seaweed consumed in a single meal) ([2]; injection into hemocoel, 10^-8 M or 10^-7 M): completely inhibiting consumption

SMILES: CC(C)C[C@H](NC(=O)CNC(=O)[C@H](Cc1ccc(O)cc1)NC(=O)[C@H](CC(=O)O)NC(=O)[C@H](Cc1ccc(OS(=O)(=O)O)cc1)NC(=O)[C@H](CO)NC(=O)[C@H](Cc1c[nH]c2ccccc12)NC(=O)[C@H](C)NC(=O)CNC(=O)[C@@H]1CCC(=O)N1)C(=O)NCC(=O)NCC(=O)NCC(=O)N[C@@H](CCCNC(=N)N)C(=O)N[C@@H](Cc1ccccc1)C(N)=O [[sY6]-apCCK1] ([pGlu]GAWS[sY]DYGLGGGRF-NH2)
- Feeding program effect, summary grade [1]: No effect
- Behavioral effect (food intake), summary grade [2]: No effect
- Food intake (seaweed consumed in a single meal) [2, 5]: did not influence feeding

SMILES: CC(C)C[C@H](NC(=O)CNC(=O)[C@H](Cc1ccc(OS(=O)(=O)O)cc1)NC(=O)[C@H](CC(=O)O)NC(=O)[C@H](Cc1ccc(OS(=O)(=O)O)cc1)NC(=O)[C@H](CO)NC(=O)[C@H](Cc1c[nH]c2ccccc12)NC(=O)[C@H](C)NC(=O)CNC(=O)[C@@H]1CCC(=O)N1)C(=O)NCC(=O)NCC(=O)NCC(=O)N[C@@H](CCCNC(=N)N)C(=O)N[C@@H](Cc1ccccc1)C(N)=O [[sY6, sY8]-apCCK1] ([pGlu]GAWS[sY]D[sY]GLGGGRF-NH2)
- Protraction duration of CBI-2 programs ([1]; 10^-6 M and 10^-5 M tested): shortened
- B8 activity (frequency) during retraction ([1]; CBI-2 programs): reduced
- Feeding program effect, summary grade [1]: Strong
- Behavioral effect (food intake), summary grade [2]: Strong
- Time to consume one strip of seaweed (average of the first three strips) ([2]; injected with 10^-8 M, compared with control animals): took longer
- Food intake (seaweed consumed in a single meal) [2, 5]: strongly reduced food intake
